Patent US20060093578A1, “Method and composition for treating multiple sclerosis” (Kyorin Pharmaceutical Co., Ltd., priority 2004, published 2006)

Assays:
[1] = system: IL-12 p70 production by microglia; assay: IL-12 p70 production by LPS + IFNγ-stimulated microglia (ELISA); type: cell-based, C57BL/6J mice; settings: for IL-12 p70: mean ± SD (n = 9); for IL-12 production by microglia: LPS and IFNγ stimulation, graded doses (FIG. 1, FIG. 9A)
Description: Samples used for the experiments were prepared as described below. […] The cultures were maintained with Dulbecco's modified Eagle's minimum essential medium supplemented with 10% fetal calf serum, 5 μg/ml bovine insulin, and 0.2% glucose.
The supernatant was then collected and stored at −70° C. until assessed. From the remaining cells, total RNA was extracted, following the guanidinium thiocyanate method (RNeasy Mini Kit;QIAGEN). The cDNA encoding mouse TNFα, IL-1β, IL-6, iNOS (inducible nitric oxide synthetase), and IL-12, was generated by reverse transcription-polymerase chain reaction (RT-PCR) using Superscript II (INVITROGEN), and Ampli Taq DNA polymerase (APPLIED BIOSYSTEMS) with the specific primers shown in Table 1.
Cytokine production was measured with an ELISA kit specific for IL1, IL-6, TNFα, and IL-12 p70 (TECHNE Corp. MN). NO production was determined by Griess reaction. Briefly, a 50 μl aliquot of supernatants were mixed with an equal volume of Griess reagent (0.1% N-ethylenediarnine dihydrochloride, 1% sulfanilamide, and 2.5% phosphoric acid) and incubated for 15 minutes at room temperature, and the absorbance was read at 540 nm on a microtiter plate reader. Nitrite concentrations were calculated from a standard curve of NaNO2 (Yoshikawa M, Suzumura A, Tamaru T, et al. “Effects of phosphodiesterase inhibitors on microglia.” Multiple Scler 1999;5: 126-133, the contents of which are hereby incorporated by reference in their entirety).

[2] = system: peripheral blood mononuclear cells; settings: with IFNβ, synergistically; PBMC from patients with active MS; clinical trial; cited from earlier work
[3] = microglia + LPS (1 μg/mL) + IFNγ (1 ng/mL) + IFNβ 10^2 U/mL, agent 1 μM
[4] = microglia + LPS (1 μg/mL) + IFNγ (1 ng/mL) + IFNβ 10^2 U/mL, agent 10 μM
[5] = microglia + LPS (1 μg/mL) + IFNγ (1 ng/mL) + IFNβ 10^2 U/mL, agent 100 μM, detection limit 7 pg/mL
[6] = microglia + LPS (1 μg/mL) + IFNγ (1 ng/mL), agent 1 μM, stimulated control 118 ± 13
[7] = microglia + LPS (1 μg/mL) + IFNγ (1 ng/mL), agent 10 μM, stimulated control 118 ± 13
[8] = microglia + LPS (1 μg/mL) + IFNγ (1 ng/mL), agent 100 μM, detection limit 7 pg/mL

Compound | IL-12 p70 [1, 3] [pg/mL] | IL-12 p70 [1, 4] [pg/mL] | IL-12 p70 [1, 5] | IL-12 p70 [1, 6] [pg/mL] | IL-12 p70 [1, 7] [pg/mL] | IL-12 p70 [1, 8] | IL-12 production by microglia [1] | anti-inflammatory cytokine IL-10 [2] | production of inflammatory cytokines [2]
CC(C)C(=O)c1c(C(C)C)nn2ccccc12 [Ibudilast, ibudilast] | 48 ± 11 | 43 ± 6 | <7^a** pg/mL | 53 ± 4 | 48 ± 5 | <7^a* pg/mL |  |  | 
Cc1[nH]c(=O)c(C#N)cc1-c1ccc2nccn2c1 [Orprinone, orprinone] | 67 ± 14 | 44 ± 7 | 40 ± 9 pg/mL | 107 ± 20 | 88 ± 14 | 32 ± 11 pg/mL | dose-dependently suppressed |  | 
CCCC(=O)Nc1ncnc2c1ncn2[C@@H]1O[C@@H]2COP(=O)(O)O[C@H]2[C@H]1OC(=O)CCC [dbcAMP, dibutyryl cAMP] |  |  |  | 122 ± 23 | 59 ± 18 | 23 ± 8 pg/mL | dose-dependently suppressed |  | 
C=C[C@@]1(C)CC(=O)[C@]2(O)[C@@]3(C)[C@@H](O)CCC(C)(C)[C@@H]3[C@H](O)[C@H](OC(C)=O)[C@@]2(C)O1 [forskoline, forskolin] | 47 ± 10 | 34 ± 6 | <7^a** pg/mL |  |  |  |  |  | 
CC(=O)CCCCn1c(=O)c2c(ncn2C)n(C)c1=O [pentoxifylline] |  |  |  |  |  |  |  | up-regulate | reduce
